Experimental data taken from patent US6974830B2, “NR1H4 nuclear receptor binding compounds” (Phenix Pharmaceuticals AG, priority 2001, dated 2005).
Like-named read-outs stand apart in the source and are kept apart here.

Columns and labels:
full length human FXR = target: T1, full length human FXR (Homo sapiens, UniProt Q96RI1); assay: transactivation of FXR mediated transcription in a HEK293 reporter cell line (luciferase); format: cell-based; conditions: for Emax: HEK293, read-out: EFFIC AVG (average efficacy, % activity relative to CDCA control agonist), relative to CDCA control agonist; for EC50: HEK293 FXR reporter cell line
T1 construct: expressed in transfected cells
T1 sequence (Q96RI1 1-472 isoform Q96RI1-2): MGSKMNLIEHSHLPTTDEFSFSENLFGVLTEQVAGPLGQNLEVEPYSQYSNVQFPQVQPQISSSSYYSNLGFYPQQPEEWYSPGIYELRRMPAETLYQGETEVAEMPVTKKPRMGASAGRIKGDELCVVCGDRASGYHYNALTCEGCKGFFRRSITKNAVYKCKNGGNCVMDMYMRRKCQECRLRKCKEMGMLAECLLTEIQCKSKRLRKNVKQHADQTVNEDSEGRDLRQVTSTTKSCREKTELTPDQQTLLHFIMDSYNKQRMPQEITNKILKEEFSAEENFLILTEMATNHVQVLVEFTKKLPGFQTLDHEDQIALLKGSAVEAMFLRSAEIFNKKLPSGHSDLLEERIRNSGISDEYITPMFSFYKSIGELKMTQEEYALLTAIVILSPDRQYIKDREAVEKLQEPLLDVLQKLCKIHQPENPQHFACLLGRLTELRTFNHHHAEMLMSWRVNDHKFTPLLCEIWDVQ
T1 sequence (P19793 1-462 partner): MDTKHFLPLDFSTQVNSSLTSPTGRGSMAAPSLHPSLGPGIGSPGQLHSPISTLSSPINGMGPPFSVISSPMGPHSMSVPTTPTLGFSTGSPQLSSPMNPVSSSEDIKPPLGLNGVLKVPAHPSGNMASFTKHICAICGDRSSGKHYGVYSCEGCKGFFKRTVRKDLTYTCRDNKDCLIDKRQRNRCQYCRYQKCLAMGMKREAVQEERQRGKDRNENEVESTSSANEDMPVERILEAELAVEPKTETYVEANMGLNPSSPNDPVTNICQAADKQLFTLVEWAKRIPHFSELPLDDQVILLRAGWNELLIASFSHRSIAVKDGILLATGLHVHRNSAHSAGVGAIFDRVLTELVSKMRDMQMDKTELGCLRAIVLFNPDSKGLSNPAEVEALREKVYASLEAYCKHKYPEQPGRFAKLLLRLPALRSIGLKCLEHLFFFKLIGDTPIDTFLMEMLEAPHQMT
Source text: Tables 3, 4, 5 and 6 illustrate the preferred compounds according to the invention that can mediate transactivation of FXR mediated transcription in a HEK293 reporter cell line.
Stable HEK293FXR reporter cell lines were generated by stably transfecting with the pTRexDest30 (Invitrogen) derivatives pTRexDest30-hFXR, pTRexDest30-hRXR and the pGL2promoter (Promega) derivative pGL2promoter-FXRRE. The full length human FXR (accession U68233) and the full length human RXRα (accession P19793) were cloned into the pTRexDest30 applying the manufacturer protocols for the Gateway™ system (Invitrogen).
The FXR response elements were cloned (upper case and undrelined). 5′-cccaGGGTGAaTAACCTcggggctctgtccctccaatcccaGGGTGAaTAACCTcggg 3′ (SEQ ID NO. 5) was created from the human IBAB-P promoter (Grober et al 1999, JBC 274, pp. 29749-29754). A stable clone was selected and seeded at a density of […] cells per well in 48 well plates. Luciferase reporter activity was measured in duplicates from extracts of cells after incubating cells in culture medium (DMEM [Gibco-BRL]+10% FCS [PAA laboratories]) for 16 hours (5% CO2, 37° C.) containing 0.5% DMSO (control) or 0.5% DMSO with increasing concentrations of TR0800012996.

human FXR alpha (NR1H4) = target: T2, human FXR alpha (NR1H4) (Homo sapiens, UniProt Q96RI1); assay: FXR binding / FXR-Tif 2 coactivator interaction, LANCE TR-FRET
T2 construct: agonist activity at the NR1H4 human nuclear receptor; fused on or other part: GST at the N-terminus (pDest15) in the TR-FRET test
T2 sequence (Q96RI1 1-486): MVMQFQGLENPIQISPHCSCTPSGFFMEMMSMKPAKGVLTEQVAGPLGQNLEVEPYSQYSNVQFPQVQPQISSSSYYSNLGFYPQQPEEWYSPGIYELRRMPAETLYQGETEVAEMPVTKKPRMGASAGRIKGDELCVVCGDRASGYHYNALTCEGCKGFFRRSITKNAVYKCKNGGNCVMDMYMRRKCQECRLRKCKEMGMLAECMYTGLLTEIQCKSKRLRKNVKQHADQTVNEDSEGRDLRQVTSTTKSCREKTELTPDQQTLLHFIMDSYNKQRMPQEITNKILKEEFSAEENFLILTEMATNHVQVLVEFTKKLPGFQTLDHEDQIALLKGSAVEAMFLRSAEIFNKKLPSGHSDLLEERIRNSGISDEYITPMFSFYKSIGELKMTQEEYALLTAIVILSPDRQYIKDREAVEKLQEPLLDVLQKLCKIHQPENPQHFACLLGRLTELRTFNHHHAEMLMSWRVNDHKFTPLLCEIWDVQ
Description: In particular, the invention relates to compounds as described above wherein the compounds are capable of binding the NR1H4 receptor protein or a portion thereof according to SEQ ID NOS 1-4 shown in FIGS. 4A-4D, respectively, or a mammalian homologue thereof. The claimed compound can bind to the NR1H4 receptor protein or a portion thereof in a mixture comprising 10-200 ng of NR1H4 receptor protein or a portion thereof, preferably the ligand binding domain, 20 mM Tris/HCl at pH 7.9; 60 mM KCl; 5 mM MgCl2; 160 ng/μl BSA in a total volume of preferably about 25 μl.
For in vitro screening for compounds which influence FXR binding to coactivators, a fragment of the open reading frame of human FXR alpha (NR1H4-(Acc. No:AF384555)) encoding aminoacids 187-472 was amplified by standard RT PCR procedures (see SEQ ID NOS. 1 and 2 in FIGS. 4A and 4B, respectively). The starting material was total RNA derived from human liver. The resulting cDNA obtained after reverse transcription was subsequently cloned using the Gateway™ recombination technology (Invitrogen, USA) into the expression plasmid pDest15 (Invitrogen, USA). This construct was used to express a recombinant GST-FXR fusion protein in E. coli (BL21 strain). A pDEST 17 derivative clone harboring an additional sequence encoding amino acids 548-878 of human TIF2 (Acc. No: XM—011633 RefSeq) was constructed using Gateway™ recombination technology (Invitrogen, USA) in order to obtain a construct which was used to express recombinant His-tagged TIF2 fragment in E. coli. For E. coli expression of both constructs, plasmid DNA was transformed into chemically competent E. coli BL21 (Invitrogen, USA) and cells were grown to an OD600 of 0.4-0.7 before expression was induced by addition of 0.5 mM IPTG according instructions of the manufacturer (Invitrogen). After induction for 8 hours at 30° C., the cells were harvested by centrifugation for 10 minutes at 5000×g. Fusion proteins were affinity purified using Glutathion sepharose (Pharmacia) or Ni-NTA Agarose (QIAGEN) according to the instructions of the respective manufacturer. Recombinant proteins were dialyzed against 20 mM Tris/HCL pH 7.9; 60 mM KCl; 5 mM MgCl2; 1 mM DTT, 0.2 mM PMSF; 10% glycerol. The TIF2 fragment was subsequently biotinylated by addition of 40-120 μl of a biotinamidocaproate N-hydroxysuccinimide-ester (Sigma) solution (20 mg/ml in DMSO). […]
For screening of the compound libraries as provided for by the methods described in Examples 2, 3 and 4 below for substances which influence the FXR/Tif 2 interaction, Perkin Elmer LANCE technology was used. […] For ease of handling and reduction of background from compound fluorescence, LANCE technology makes use of generic fluorophore labels and time resoved detection. […]

Row | Emax (full length human FXR; Table 6) [%] | Emax (full length human FXR; Tables 3-5) [%] | EC50 (full length human FXR; Tables 3-5) [µM] | EC50 (human FXR alpha (NR1H4); read-out: EC50 (effective binding concentration at FXR, half-maximal effective concentration)) [µM] | agonist activity at the NR1H4 human nuclear receptor (human FXR alpha (NR1H4)) | Compound
1 | 309 | 110 | 0.2 |  |  | O=C(O)C1CCC(CNc2nc(-c3ccccc3O)c(Cc3c(F)cccc3F)s2)CC1 (stereo not shown) [LN0000006316]
2 | 223 | 115 | 1.45 |  |  | O=C(O)c1ccc(CNc2nc(-c3ccccc3O)c(Cc3c(F)cccc3F)s2)cc1 [LN0000006317]
3 |  | 105 | 0.73 |  |  | COc1ccccc1Cc1sc(NCc2ccc(C(=O)O)cc2)nc1-c1ccccc1O [LN0000006329]
4 |  |  |  | 0.2 |  | O=C(O)C1CCC(CNc2nc(-c3ccccc3O)c(Cc3c(F)cccc3F)s2)CC1 (stereo not shown) [formula (III)]
5 |  |  |  |  | active as agonist | O=C(O)C1CCC(CNc2nc(-c3cccc(O)c3)c(Cc3c(Cl)cccc3Cl)s2)CC1 (stereo not shown) [formula (IV)]

The remaining lines, values behind:

Row | Compound | Emax (full length human FXR; Table 6) [%] | Emax (full length human FXR; Tables 3-5) [%] | EC50 (full length human FXR; Tables 3-5) [µM] | EC50 (human FXR alpha (NR1H4); read-out: EC50 (effective binding concentration at FXR, half-maximal effective concentration)) [µM] | agonist activity at the NR1H4 human nuclear receptor (human FXR alpha (NR1H4))
6 | O=C(O)C1CCC(CNc2nc(-c3ccccc3O)c(Cc3cccc(F)c3F)s2)CC1 (stereo not shown) [LN0000006322] |  | 115 |  |  | 
7 | O=C(O)c1ccc(CNc2nc(-c3ccccc3O)c(Cc3cccc(F)c3F)s2)cc1 [LN0000006323] |  | 86 | 0.44 |  | 
8 | COc1ccccc1Cc1sc(NCC2CCC(C(=O)O)CC2)nc1-c1ccccc1O (stereo not shown) [LN0000006328] |  | 116 | 4.5 |  | 
9 | O=C(O)CCCCCNc1nc(-c2ccccc2O)c(Cc2cccc(F)c2F)s1 [LN0000006346] |  | 63 | 5.12 |  | 
10 | COc1ccccc1Cc1sc(NCCCCCC(=O)O)nc1-c1ccccc1O [LN0000006347] |  | 66 | 3.1 |  | 
11 | O=C(O)C1CCC(CNc2nc(-c3cccc(O)c3)c(Cc3c(F)cccc3F)s2)CC1 (stereo not shown) [LN0000006348] |  | 109 | 2.39 |  | 
12 | O=C(O)c1ccc(CNc2nc(-c3cccc(O)c3)c(Cc3c(F)cccc3F)s2)cc1 [LN0000006349] |  | 66 | 4.05 |  | 
13 | O=C(O)C1CCC(CNc2nc(-c3cccc(O)c3)c(Cc3c(Cl)cccc3Cl)s2)CC1 (stereo not shown) [LN0000006365] | 340 | 92 | 0.36 |  | 
14 | O=C(O)c1ccc(CNc2nc(-c3ccccc3O)c(Cc3cccc(F)c3F)s2)cc1 [formula (V)] |  |  |  |  | active as agonist
15 | COc1ccccc1Cc1sc(NCc2ccc(C(=O)O)cc2)nc1-c1ccccc1O [formula (VI)] |  |  |  |  | active as agonist
